US8269043B2, “Bicyclic aryl sphingosine 1-phosphate analogs” (Biogen Idec MA Inc., priority 2008, dated 2012)

These compounds were tested on circulating lymphocytes (assay: Lymphopenia assay: circulating lymphocytes after oral gavage). Conditions: C57bl/6 male mice, oral gavage 0.5 and 5 mg/kg in 30% HPCD, blood 5 and 24 hours after administration.
Assay type: in vivo
Procedure: Measurement of circulating lymphocytes: Compounds were dissolved in 30% HPCD. Mice (C57bl/6 male, 6-10 week-old) were administered 0.5 and 5 mg/kg of a compound via oral gavage. 30% HPCD was included as a negative control.
Blood was collected from the retro-orbital sinus 5 and 24 hours after drug administration under short isoflurane anesthesia. Whole blood samples were subjected to hematology analysis. Peripheral lymphocyte counts were determined using an automated analyzer (HEMAVET™ 3700). Three mice were used to assess the lymphocyte depletion activity of each compound screened.
Compounds of formula (I) induced full lymphopenia at times as short as 3 hours or less to as long as 48 hours or more; for example, 4 to 36 hours, or 5 to 24 hours. In some cases, a compound of formula induced full lymphopenia at 5 hours and partial lymphopenia at 24 hours. The dosage required to induce lymphopenia can be in the range of, e.g., 0.001 mg/kg to 100 mg/kg; or 0.01 mg/kg to 10 mg/kg. The dosage can be 10 mg/kg or less, such as 5 mg/kg or less, 1 mg/kg or less, or 0.1 mg/kg or less
In the case of `C[C@](N)(CO)c1ccc2cc(O[C@H]3C[C@H](COCc4ccccc4)C3)ccc2c1` (relative stereo) [Example 76], the “Lymphopenia (ED50 mg/kg)” value is reported as 0.5 to 5 mg/kg. `C[C@](N)(CO)c1ccc2cc(O[C@H]3C[C@@H](COCc4ccccc4)C3)ccc2c1` (relative stereo) [Example 77] was tested, and the “Lymphopenia (ED50 mg/kg)” value was <0.5 mg/kg. For `CCC(C)(C)[C@H]1CC[C@H](Oc2ccc3cc([C@@](C)(N)CO)ccc3c2)CC1` (relative stereo) [Example 78, (R)-2-Amino-2-[6-(4-trans-tert-pentylcyclohexyloxy)naphthalen-2-yl]propan-1-ol], the “Lymphopenia (ED50 mg/kg)” value was 0.5 to 5 mg/kg. In the case of `CCC(C)(C)[C@H]1CC[C@@H](Oc2ccc3cc([C@@](C)(N)CO)ccc3c2)CC1` (relative stereo) [Example 79, (R)-2-Amino-2-[6-(4-cis-tert-pentylcyclohexyloxy)naphthalen-2-yl]propan-1-ol], the “Lymphopenia (ED50 mg/kg)” value is reported as >5 mg/kg. For `C[C@](N)(CO)c1ccc2c(C(F)(F)F)c(O[C@H]3C[C@H](COCc4ccccc4)C3)ccc2c1` (relative stereo) [Example 82], the “Lymphopenia (ED50 mg/kg)” value was <0.5 mg/kg. With `CC(C)(C)[C@H]1CC[C@H](Oc2ccc3cc([C@](C)(N)CO)ccc3c2C(F)(F)F)CC1` (relative stereo) [Example 124, (S)-2-amino-2-[6-(4-trans-tert-butyl-cyclohexyloxy)-5-trifluoromethyl-naphthalen-2-yl]-propan-1-ol] the “Lymphopenia (ED50 mg/kg)” value was >5 mg/kg. `CC(C)(C)[C@H]1CC[C@@H](Oc2ccc3cc([C@](C)(N)CO)ccc3c2C(F)(F)F)CC1` (relative stereo) [Example 128, (S)-2-amino-2-[6-(4-cis-tert-butyl-cyclohexyloxy)-5-trifluoromethyl-naphthalen-2-yl]-propan-1-ol] was tested, and the “Lymphopenia (ED50 mg/kg)” value was 0.5 to 5 mg/kg. In the case of `CC(C)(C)[C@H]1CC[C@H](Oc2ccc3cc([C@@](C)(N)CO)ccc3c2)CC1` [Example 25, (R)-2-amino-2-(6-(trans-4-tert-butylcyclohexyloxy)naphthalen-2-yl)propan-1-ol], the “Lymphopenia (ED50 mg/kg)” value is reported as >5 mg/kg. In the case of `CC(C)(C)[C@H]1CC[C@H](Oc2ccc3cc([C@@](C)(N)CO)ccc3c2)CC1` [Example 49, (R)-2-amino-2-(6-(trans-4-tert-butylcyclohexyloxy)naphthalen-2-yl)propan-1-ol], the “Lymphopenia (ED50 mg/kg)” value is reported as 0.4 mg/kg. In the case of `Cl.NC(CO)(CO)c1ccc2cc(O[C@H]3C[C@H](COCc4ccccc4)C3)ccc2c1` [Example 65], the “Lymphopenia (ED50 mg/kg)” value is reported as <0.5 mg/kg. In the case of `Cl.NC(CO)(CO)c1ccc2cc(O[C@H]3C[C@@H](COCc4ccccc4)C3)ccc2c1` [Example 66], the “Lymphopenia (ED50 mg/kg)” value is reported as <0.5 mg/kg. `NC(CO)(CO)c1ccc2c(C(F)(F)F)c(O[C@H]3C[C@H](COCc4ccccc4)C3)ccc2c1` [Example 73] was tested, and the “Lymphopenia (ED50 mg/kg)” value was <0.5 mg/kg. For `NC(CO)(CO)c1ccc2c(C(F)(F)F)c(O[C@H]3C[C@@H](COCc4ccccc4)C3)ccc2c1` [Example 74], the “Lymphopenia (ED50 mg/kg)” value was <0.5 mg/kg.

Same assay, conditions: Mus musculus, Lymphocyte, po, C57bl/6 male mice, oral gavage 0.5 and 5 mg/kg in 30% HPCD, blood 5 and 24 hours after administration
`CC(CO)c1ccc2c(C(F)(F)F)c(O[C@H]3CC[C@H](C(C)(C)C)CC3)ccc2c1` (relative stereo) [Example 275, 2-[6-(trans-4-tert-Butyl-cyclohexyloxy)-5-trifluoromethyl-naphthalen-2-yl]-propan-1-ol] was tested, and the ED50 was > 5 mg/kg. `CC(N)(CO)c1ccc2c(C(F)(F)F)c(O[C@H]3CC[C@H](C(C)(C)C)CC3)ccc2c1` (relative stereo) [Example 276, 2-Amino-2-[6-(trans-4-tert-butyl-cyclohexyloxy)-5-trifluoromethyl-naphthalen-2-yl]-propan-1-ol] was tested, and the ED50 was < 0.5 mg/kg. `CCCC[C@H]1CC[C@@H](Oc2ccc3cc([C@@](C)(N)CO)ccc3c2)CC1` [Example 6, (R)-2-amino-2-(6-(cis-4-butylcyclohexyloxy)naphthalen-2-yl)propan-1-ol] showed an ED50 of 0.75 mg/kg. `CCCCC1CCC(Oc2ccc3cc([C@@](C)(N)CO)ccc3c2)CC1` (stereo partly drawn) [Example 7, (R)-2-amino-2-(6-(4-butylcyclohexyloxy)naphthalen-2-yl)propan-1-ol] was tested, and the ED50 was < 0.5 mg/kg. With `CCCC[C@H]1CC[C@H](Oc2ccc3cc([C@@](C)(N)CO)ccc3c2)CC1` [Example 8, (R)-2-amino-2-(6-(trans-4-butylcyclohexyloxy)naphthalen-2-yl)propan-1-ol] the ED50 was < 0.5 mg/kg. For `CCCC[C@H]1CC[C@@H](Oc2ccc3cc(C(N)(CO)CO)ccc3c2)CC1` [Example 14, 2-amino-2-(6-(cis-4-butylcyclohexyloxy)naphthalen-2-yl)propane-1,3-diol], the ED50 was > 5 mg/kg. Compound `CCCC[C@H]1CC[C@@H](Oc2ccc3cc([C@@](C)(N)CO)ccc3c2C(F)(F)F)CC1` [Example 17, (R)-2-amino-2-(6-(cis-4-butylcyclohexyloxy)-5-(trifluoromethyl)naphthalen-2-yl)propan-1-ol] has an ED50 of 0.07 mg/kg. For `C[C@](N)(CO)c1ccc2cc(O[C@H]3CC[C@@H](c4ccccc4)CC3)ccc2c1` [Example 30, (R)-2-amino-2-(6-(cis-4-phenylcyclohexyloxy)naphthalen-2-yl)propan-1-ol], the ED50 was 0.5 to 5 mg/kg. In the case of `CC1(C)CCC(Oc2ccc3cc([C@@](C)(N)CO)ccc3c2)CC1` [Example 47, (R)-2-amino-2-(6-(4,4-dimethylcyclohexyloxy)naphthalen-2-yl)propan-1-ol], the ED50 is reported as > 5 mg/kg. For `C[C@](N)(CO)c1ccc2cc(OC3CCC4CCCCC4C3)ccc2c1` (stereo partly drawn) [Example 87, (R)-2-Amino-2-[6-(decahydro-naphthalen-2-yloxy)-naphthalen-2-yl]-propan-1-ol], the ED50 was 0.5 to 5 mg/kg. Work on `C[C@](N)(CO)c1ccc2cc(OC3CCC(C4CCCCC4)CC3)ccc2c1` (stereo partly drawn) [Example 89, (R)-2-Amino-2-[6-(bicyclohexyl-4-yloxy)-naphthalen-2-yl]-propan-1-ol] yielded an ED50 of 0.5 to 5 mg/kg. With `CC(C)C1CCC(Oc2ccc3cc([C@@](C)(N)CO)ccc3c2)CC1` (stereo partly drawn) [Example 91, (R)-2-Amino-2-[6-(4-isopropyl-cyclohexyloxy)-naphthalen-2-yl]-propan-1-ol] the ED50 was 0.5 to 5 mg/kg. In the case of `C[C@](N)(CO)c1ccc2cc(OC3CCC(C4CCCC4)CC3)ccc2c1` (stereo partly drawn) [Example 94, (R)-2-Amino-2-[6-(4-cyclopentyl-cyclohexyloxy)-naphthalen-2-yl]-propan-1-ol], the ED50 is reported as 0.5 to 5 mg/kg. `CCC(C)C1CCC(Oc2ccc3cc([C@@](C)(N)CO)ccc3c2)CC1` (stereo partly drawn) [Example 97, (R)-2-Amino-2-[6-(4-sec-butyl-cyclohexyloxy)-naphthalen-2-yl]-propan-1-ol] was tested, and the ED50 was 0.5 to 5 mg/kg. For `C[C@](N)(CO)c1ccc2c(C(F)(F)F)c(O[C@H]3CC[C@@H](C4CCCC4)CC3)ccc2c1` [Example 100, (R)-2-Amino-2-[6-(cis-4-cyclopentyl-cyclohexyloxy)-5-trifluoromethyl-naphthalen-2-yl]-propan-1-ol], the ED50 was > 5 mg/kg. With `C[C@](N)(CO)c1ccc2c(C(F)(F)F)c(O[C@H]3CC[C@H](C4CCCC4)CC3)ccc2c1` [Example 103, (R)-2-Amino-2-[6-(trans-4-cyclopentyl-cyclohexyloxy)-5-trifluoromethyl-naphthalen-2-yl]-propan-1-ol] the ED50 was > 5 mg/kg. Work on `CN[C@@](C)(CO)c1ccc2cc(OC3CCC(C(C)(C)C)CC3)ccc2c1` (stereo partly drawn) [Example 112, (R)-2-[6-(4-tert-butyl-cyclohexyloxy)-naphthalen-2-yl]-2-methylamino-propan-1-ol] yielded an ED50 of 0.5 to 5 mg/kg. `C[C@@]1(c2ccc3c(C(F)(F)F)c(O)ccc3c2)COC(=O)N1` [Example 130, (R)-4-(6-hydroxy-5-(trifluoromethyl)naphthalen-2-yl)-4-methyloxazolidin-2-one] was tested, and the ED50 was > 5 mg/kg.
